Source: PMC12828148, “Engineered cyclic peptide targeting ITGA5 disrupts tumor–stroma interaction to overcome desmoplasia and resistance in pancreatic ductal adenocarcinoma” (Acta Pharmaceutica Sinica. B, 2025)
Peptide text beside a SMILES is read from it.

Tests used:
Format in all cases: cell-based, human
[1] = tested on: TGF-β treated PSCs; experiment: Cell adhesion competition study (PSC attachment to FN-coated plate, crystal violet); settings: 50 μmol/L peptide, 30 min pre-incubation 37 °C, 1 h attachment, crystal violet absorbance 600 nm, n = 3
Description: To analyze the interaction of PSC and FN, a 96 suspension well plate was coated with 100 μL FN (Advanced Biomatrix, Carlsbad, CA, USA) at 1 μg/mL by overnight incubation at 4 °C. Next, the plate was washed with DPBS (Lonza) and blocked with 5% bovine serum albumin (BSA) in DPBS for at least 1 h at RT. In the meantime, a cell suspension of 200,000 cells/mL of TGF-β treated PSCs in DPBS with 2 mmol/L Ca^2+ and 2 mmol/L Mg^2+ was treated with 50 μmol/L AV3.3 or cyAV3.3 and incubated for 30 min at 37 °C. After washing the plate with DPBS, 100 μL cell suspension was added to each well and then set to rest for 1 h at RT. The plate was then washed with DPBS to remove unattached cells. […] Next, cells were stained with 0.1% (w/v) crystal violet (Sigma) in 25% methanol at RT. After 20 min, cells were washed with water and lysed with 0.5% (w/v) SDS. The degree of cell attachment was measured by the absorbance of the crystal violet at 600 nm using Tecan Infinite M200 plate reader (Tecan, Mannendorf, Switzerland). In other plate, cells were washed with DPBS after fixation and then stained with DAPI. Images were developed using EVOS fluorescence microscope (Thermo Scientific).

[2] = tested on: hPSCs activated by TGF-β; experiment: Gene expression in TGF-β-activated hPSCs (qPCR, RT2 profiler PCR array)
Description: Quantitative real-time PCR
To examine the effect of peptides on the gene expression of hPSC activation markers, cells were seeded into a 12 well plate at a seeding density of 50,000 cells/well. After overnight incubation, cells were starved for 24 h, then treated with human recombinant 5 ng/mL TGF-β (Peprotech, […]
After 24 h of the incubation, cells were lysed and total RNA was isolated using GenElute™ Mammalian Total RNA Miniprep Kit (Sigma–Aldrich) and the RNA concentration was measured using a NanoDrop® ND-1000 Spectrophotometer (Thermo Scientific, Waltham, USA). cDNA was synthesized with iScript™ cDNA Synthesis Kit (BioRad, Veenendaal, The Netherlands), and 10 ng cDNA was used for each PCR reaction. The real-time PCR primers (Table S1) were purchased from Sigma–Aldrich. Quantitative real time PCR was performed with 2× SensiMix SYBR and Fluoroscein Kit (Bioline GmbH, Luckenwalde, Germany) using a BioRad CFX384 Real-Time PCR detection system (BioRad). Gene expression levels were normalized to the expression of the house-keeping gene 18s rRNA. […]
The next day, the medium […]
was changed with 0% FBS Stellate Cell medium to starve hPSCs for 24 h. Subsequently, hPSCs were incubated with 5 ng/mL TGF-β1 and peptide for 48 h to examine the effect on protein expression of different markers such as α-SMA and collagen-1. Cells were lysed using 1× blue loading buffer containing 1× DTT reducing agent (Cell Signaling Technology) and homogenized using ultrasonication. Protein lysates were separated on a 4%–20% Tris-Glycine gel (Thermo Scientific) and then transferred onto a PVDF membrane (Thermo Scientific). […]

[3] = tested on: PANC-1 homospheroids / PANC-1 + PSC heterospheroids; experiment: Gene expression in 3D PANC-1 homospheroids and PANC-1 + PSC heterospheroids (qPCR); settings: treated Days 3 and 6, qPCR Day 7, n = 3
[4] = tested on: hPSCs; experiment: Cell viability, Alamar blue assay
Description: We investigated the inhibitory effect of both cyclic and linear peptides on PSC activation and signaling. To achieve this, PSCs were seeded and treated with TGF-β and peptides for 48 h (protein expression) or 24 h (gene expression). We also tested the effect of the peptide on the cell viability using Alamar blue assay and found no toxicity (Supporting Information Fig. S3A). […] To quantitate that, we performed Western blot analysis and confirmed the observed effect via immunostaining (Fig. 2B and C; Fig. S3B). The details of the antibodies used can be found in Supporting Information Table S2. […] After obtaining these effects, we focused on cyAV3.3 and examined its inhibitory effects on TGF-β1-stimulated PSCs using qPCR and an RT[2] profiler PCR array for ECM and adhesion receptors (Fig. 2D). […] The details of primers for all genes can be found in Supporting Information Table S3. […] In contrast, cyAV3.3 induced the gene expression of ECM-degrading proteins such as MMP10 and ADAMTS-13 (Supporting Information Fig. S4).

C[C@@H]1NC(=O)[C@H](CCCNC(=N)N)NC(=O)[C@H](Cc2ccc(O)cc2)NC(=O)[C@H](Cc2ccc(O)cc2)NC(=O)[C@H](CCCNC(=N)N)NC(=O)CNC(=O)[C@H](CCCCN)NC(=O)[C@H](Cc2ccc(O)cc2)NC(=O)[C@H]([C@@H](C)O)NC1=O [cyAV3.3] (cyclo(ATYKGRYYR))
blocking of the binding of PSC to FN [1]: blocked the binding of PSC to FN significantly higher than AV3.3
gene expression of FN and ITGA5 ([2]; hPSCs activated by TGF-β, cyAV3.3 50 μmol/L, 24 h, qPCR): significantly inhibited the gene expression of FN and ITGA5
expression of 38 ECM and adhesion genes upregulated by TGF-β (heatmap) ([2]; hPSCs activated by TGF-β, cyAV3.3 50 μmol/L, RT2 Profiler PCR array): downregulated all the upregulated genes
TGF-β-induced gene expression of ACTA2 and COL-1A1 ([2]; hPSCs, 5 ng/mL TGF-β, 24 h, qPCR): inhibited both ACTA2 and COL-1A1 concentration dependently
gene expression levels related to resistance, stemness and ECM in heterospheroids ([3]; PANC-1 + PSC heterospheroids): significantly reduced
gene expression in homospheroids ([3]; PANC-1 homospheroids): some genes including ABCG1, KRAS, MMP2, MMP9 were inhibited
effect on cell viability [4]: no toxicity
